What was measured:
[1] = molecular target: T1, USP11 (Homo sapiens, UniProt P51784, Q402E/Y833E); assay: bio-layer interferometry (Octet), biotinylated protein on SSA sensors, […] global fit; type: binding
T1 construct: biotin-labelled for BLI

[2] = molecular target: T2, USP11 (Homo sapiens, UniProt P51784); assay: as above; type: binding; conditions: PBS-T, 30 °C; RSL3 6.81-218 μM; unreliable (KD above the highest concentration tested); protein refolded from 8 M urea
T2 construct: biotin-labelled for BLI
T2 sequence (P51784 whole entry): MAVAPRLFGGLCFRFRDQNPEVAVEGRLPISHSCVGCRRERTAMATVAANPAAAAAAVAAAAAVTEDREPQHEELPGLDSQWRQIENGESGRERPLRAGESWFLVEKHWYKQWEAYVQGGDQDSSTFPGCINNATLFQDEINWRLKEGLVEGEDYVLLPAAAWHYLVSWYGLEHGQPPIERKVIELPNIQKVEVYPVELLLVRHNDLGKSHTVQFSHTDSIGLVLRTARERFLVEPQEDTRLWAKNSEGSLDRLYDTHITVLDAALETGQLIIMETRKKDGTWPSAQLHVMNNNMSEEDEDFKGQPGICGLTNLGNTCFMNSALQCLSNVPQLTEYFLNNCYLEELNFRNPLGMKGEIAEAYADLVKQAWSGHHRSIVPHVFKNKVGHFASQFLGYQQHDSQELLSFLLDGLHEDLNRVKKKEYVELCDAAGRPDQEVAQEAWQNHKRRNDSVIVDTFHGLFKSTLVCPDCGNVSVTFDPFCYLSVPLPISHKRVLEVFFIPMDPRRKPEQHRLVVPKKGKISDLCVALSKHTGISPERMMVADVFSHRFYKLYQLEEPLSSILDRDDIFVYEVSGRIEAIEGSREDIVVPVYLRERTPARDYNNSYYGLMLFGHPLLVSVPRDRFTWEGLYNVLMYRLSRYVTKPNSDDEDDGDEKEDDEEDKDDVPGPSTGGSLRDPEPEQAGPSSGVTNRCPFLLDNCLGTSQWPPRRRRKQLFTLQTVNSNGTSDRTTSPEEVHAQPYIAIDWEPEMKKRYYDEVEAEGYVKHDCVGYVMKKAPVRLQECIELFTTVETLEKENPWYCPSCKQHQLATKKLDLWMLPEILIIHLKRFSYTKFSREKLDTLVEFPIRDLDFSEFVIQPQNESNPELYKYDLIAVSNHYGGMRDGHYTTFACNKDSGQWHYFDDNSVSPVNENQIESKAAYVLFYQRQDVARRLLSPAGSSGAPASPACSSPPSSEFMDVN

T1 sequence (P51784 whole entry Q402E/Y833E): as the sequence (P51784 whole entry) above, with Q402E, Y833E counted along it

COC(=O)c1ccc([C@H]2c3[nH]c4ccccc4c3C[C@H](C(=O)OC)N2C(=O)CCl)cc1 [RSL3]
Kd [1]: 190 µM
KD [2]: 340 µM

Reference: PMC9658295, “The RSL3 Induction of KLK Lung Adenocarcinoma Cell Ferroptosis by Inhibition of USP11 Activity and the NRF2-GSH Axis” (Cancers, 2022)
